This is an account of results in patent EP4631940A1, “COMPOUND TARGETING PAN-KRAS PROTEIN DEGRADATION AGENT AND USE THEREOF” (Betta Pharmaceuticals Co., Ltd., priority 2022, dated 2024).

In one data set the test system is AGS. The data set is described as follows: Cell proliferation experiment (CellTiter-Glo). The class given is cell-based. The conditions noted are these: Homo sapiens, AGS, 96 h, read-out: IC50(nM) AGS.
A further data set concerns SW620. Briefly: Cell proliferation experiment (CellTiter-Glo). It is filed as cell-based. The conditions noted are these: Homo sapiens, SW-620, 96 h, read-out: IC50(nM) SW620.
Data set [1] addresses T1, KRAS G12D (Homo sapiens, UniProt P01116, G12D).
Data set [2] is described as follows: in vitro. The conditions noted are these: human, microsomes.
Data set [3] in a line: in vitro. The conditions noted are these: rat, microsomes.
Data set [4] is described as follows: in vitro. The conditions noted are these: mouse, microsomes.
The nature of data set [5]: in vitro. The conditions noted are these: dog, microsomes.
Data set [6] has as its target T1, KRAS G12D. The data set is described as follows: cell-based. Conditions: AGS.
The test system of another data set is H358. Briefly: Cell proliferation experiment (CellTiter-Glo). It is filed as cell-based. Conditions: Homo sapiens, NCI-H358; H358, KRAS mutation type G12C; 96 h incubation.

T1 sequence (P01116 1-188 isoform P01116-2 G12D): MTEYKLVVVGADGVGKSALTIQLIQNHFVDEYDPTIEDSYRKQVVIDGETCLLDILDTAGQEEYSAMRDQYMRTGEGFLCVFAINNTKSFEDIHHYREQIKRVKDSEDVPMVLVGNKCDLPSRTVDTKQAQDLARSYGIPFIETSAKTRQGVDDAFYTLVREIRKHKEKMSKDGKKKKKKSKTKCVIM

`CCc1c(F)ccc2cc(O)cc(-c3ncc4c(N5CCC[C@@](C)(O)C5)nc(OCC5(CN6CCN(c7cnc(-c8cn([C@H](C(=O)N9C[C@H](O)C[C@H]9C(=O)N[C@@H](C)c9ccc(-c%10scnc%10C)cc9)C(C)C)nn8)cn7)CC6)CC5)nc4c3F)c12` [Compound 134]: the figures for the IC50 with AGS and with SW620 were 10 nM and 58 nM, respectively. At KRAS G12D [1], this compound showed a DC50 of 5.9 nM. The microsomal CLint in “in vitro [2]” stood at 28.4 µL/min/mg; in the data set “in vitro [3]”, 3 µL/min/mg; in “in vitro [4]” it was 6.4 µL/min/mg; in “in vitro [5]”, 5.5 µL/min/mg. The compound further yielded a Dmax at KRAS G12D [6] of 95%.

As to `CCc1c(F)ccc2cc(O)cc(-c3ncc4c(N5CCCC(C)(O)C5)nc(OCC5(CN6CCC(COc7ccc(C(=O)N[C@H](C(=O)N8C[C@H](O)C[C@H]8C(=O)N[C@@H](C)c8ccc(-c9scnc9C)cc8)C(C)(C)C)cc7)CC6)CC5)nc4c3F)c12` (stereo partly drawn) [Compound 1, (2S,4R)-1-((2S)-2-(4-((1-((1-(((7-(8-ethyl-7-fluoro-3-hydroxynaphthalen-1-yl)-8-fluoro-4-(3-hydroxy-3-methylpiperidin-1-yl)pyrido[4,3-d]pyrimidin-2-yl)oxy)methyl)cyclopropyl)methyl)piperidin-4-yl)methoxy)benzamido)-3,3-dimethylbutanoyl)-4-hydroxy-N-((S)-1-(4-(4-methylthiazol-5-yl)phenyl)ethyl)pyrrolidine-2-carboxamide], the figures for the IC50 with AGS and with H358 were 109 nM and 1080 nM, respectively.

Turning to `CCc1c(F)ccc2cc(O)cc(-c3ncc4c(N5CCC[C@@](C)(O)C5)nc(OCC5(CN6CCC(Oc7cc([C@H](C(=O)N8C[C@H](O)C[C@H]8C(=O)N[C@@H](C)c8ccc(-c9scnc9C)cc8)C(C)C)on7)CC6)CC5)nc4c3F)c12` [Compound 114, (2S,4R)-1-((R)-2-(3-((1-((1-(((7-(8-ethyl-7-fluoro-3-hydroxynaphthalen-1-yl)-8-fluoro-4-((R)-3-hydroxy-3-methylpiperidin-1-yl)pyrido[4,3-d]pyrimidin-2-yl)oxy)methyl)cyclopropyl)methyl)piperidin-4-yl)oxy)isoxazol-5-yl)-3-methylbutanoyl)-4-hydroxy-N-((S)-1-(4-(4-methylthiazol-5-yl)phenyl)ethyl)pyrrolidine-2-carboxamide], in the data set on AGS, the IC50 was 13 nM. The DC50 on KRAS G12D [1] was determined as 18 nM. Besides, the microsomal CLint in the data set “in vitro [2]” is 46.5 µL/min/mg; in the data set “in vitro [3]”, 25.2 µL/min/mg; in the data set “in vitro [4]” it was 18.9 µL/min/mg; in “in vitro [5]”, 50.5 µL/min/mg. At KRAS G12D [6], this compound registered a Dmax of 95%.

As to `CCc1c(F)ccc2cc(O)cc(-c3ncc4c(N5CCC[C@@](C)(O)C5)nc(OCCN5CCC(COc6ccc(-c7cn([C@H](C(=O)N8C[C@H](O)C[C@H]8C(=O)N[C@@H](C)c8ccc(-c9scnc9C)cc8)C(C)C)nn7)cc6)CC5)nc4c3F)c12` [Compound 67], the IC50 with AGS worked out at 40 nM; with SW620 it was 1720 nM. Also, the DC50 at KRAS G12D [1] was 22 nM. On KRAS G12D [6], this compound registered a Dmax of 78%.

For `CCc1c(F)ccc2cc(O)cc(-c3ncc4c(N5CCC[C@@](C)(O)C5)nc(OCC5(CN6CCC7(CC6)CN(c6cc([C@H](C(=O)N8C[C@H](O)C[C@H]8C(=O)N[C@@H](C)c8ccc(-c9scnc9C)cc8)C(C)C)on6)C7)CC5)nc4c3F)c12` [Compound 105], the IC50 in the data set on AGS stood at 12 nM. The same compound came in with a DC50 at KRAS G12D [1] of 8.9 nM. Besides, the microsomal CLint in “in vitro [2]” was determined as 9.9 µL/min/mg; in “in vitro [3]” it was 5.9 µL/min/mg; in the data set “in vitro [4]”, 13.3 µL/min/mg; in “in vitro [5]” it was 28.5 µL/min/mg. Moreover, on KRAS G12D [6], the Dmax came to 95%.

Regarding `CCc1c(F)ccc2cc(O)cc(-c3ncc4c(N5CCC[C@@](C)(O)C5)nc(OCC5(CN6CCC(n7cc(-c8cn([C@H](C(=O)N9C[C@H](O)C[C@H]9C(=O)N[C@@H](C)c9ccc(-c%10scnc%10C)cc9)C(C)C)nn8)cn7)CC6)CC5)nc4c3F)c12` [Compound 138], the IC50 in the data set with AGS stood at 14 nM; in the data set on SW620, 102 nM. In addition, the DC50 on KRAS G12D [1] was 13 nM. In addition, the microsomal CLint in “in vitro [2]” was 11.2 µL/min/mg; in the data set “in vitro [3]”, 5.7 µL/min/mg; in the data set “in vitro [4]”, 13.6 µL/min/mg; in the data set “in vitro [5]”, 25.5 µL/min/mg. Also, the Dmax at KRAS G12D [6] is 95%.

With `CCc1c(F)ccc2cc(O)cc(-c3ncc4c(N5CCC[C@@](C)(O)C5)nc(OCC5(CN6CCC(c7ccc(-c8cn([C@H](C(=O)N9C[C@H](O)C[C@H]9C(=O)N[C@@H](C)c9ccc(-c%10scnc%10C)cc9)C(C)(C)C)nn8)cc7)CC6)CC5)nc4c3F)c12` [Compound 119], the IC50 in the data set on AGS came to 37 nM. Besides, the microsomal CLint in “in vitro [2]” turned out to be 6.1 µL/min/mg; in “in vitro [3]”, 9.1 µL/min/mg; in the data set “in vitro [4]”, 10.4 µL/min/mg; in “in vitro [5]” it was 14.9 µL/min/mg.

Regarding `C=C1CN2[C@H](COC(=O)N3CCC4(CC3)CC(CNC(=O)C[C@H](NC(=O)[C@@H]3C[C@@H](O)CN3C(=O)C(c3cc(C)no3)C(C)C)c3ccc(-c5scnc5C)cc3)C4)CC[C@@]2(COc2nc(N3CCC[C@@](C)(O)C3)c3cnc(-c4cc(O)cc5ccc(F)c(CC)c45)c(F)c3n2)C1` (single isomer, unassigned) [Compound 139], the IC50 amounted to 84 nM in the data set with AGS and 2040 nM with SW620. This compound registered a DC50 at KRAS G12D [1] of 31 nM. Also, the Dmax on KRAS G12D [6] was determined as 95%.

Turning to `C=C1CN2[C@H](COc3ccc(-c4cn([C@H](C(=O)N5C[C@H](O)C[C@H]5C(=O)N[C@@H](C)c5ccc(-c6scnc6C)cc5)C(C)C)nn4)cn3)CC[C@@]2(COc2nc(N3CCC[C@@](C)(O)C3)c3cnc(-c4cc(O)cc5ccc(F)c(CC)c45)c(F)c3n2)C1` [Compound 124], the IC50 with AGS was determined as 15 nM; in the data set on SW620, 135 nM. At KRAS G12D [1], this compound gave a DC50 of 21 nM. For the same compound, the microsomal CLint in “in vitro [2]” was 49.7 µL/min/mg; in “in vitro [3]”, 9.1 µL/min/mg; in “in vitro [4]”, 18.6 µL/min/mg; in “in vitro [5]”, 88 µL/min/mg. The Dmax at KRAS G12D [6] was determined as 95%.

On to `CCc1c(F)ccc2cc(O)cc(-c3ncc4c(N5CCC[C@@](C)(O)C5)nc(OCC5(CN6CCN(CC7CCN(c8cc([C@H](C(=O)N9C[C@H](O)C[C@H]9C(=O)N[C@@H](C)c9ccc(-c%10scnc%10C)cc9)C(C)C)on8)CC7)CC6)CC5)nc4c3F)c12` [Compound 111], for which the 50% inhibitory concentration (IC50) in the data set with AGS came to 20 nM. The compound further had a DC50 on KRAS G12D [1] of 21 nM. The intrinsic clearance (microsomal CLint) turned out to be 21.7 µL/min/mg in “in vitro [2]”, 15.7 µL/min/mg in the data set “in vitro [3]”, 10.6 µL/min/mg in the data set “in vitro [4]” and 8.4 µL/min/mg in the data set “in vitro [5]”. This compound came in with a Dmax on KRAS G12D [6] of 95%.

As to `CCc1c(F)ccc2cc(O)cc(-c3ncc4c(N5CCC[C@@](C)(O)C5)nc(OCC5(CN6CCC(N(C)c7ccc(-c8cn([C@H](C(=O)N9C[C@H](O)C[C@H]9C(=O)N[C@@H](C)c9ccc(-c%10scnc%10C)cc9)C(C)C)nn8)cn7)CC6)CC5)nc4c3F)c12` [Compound 154], the IC50 in the data set with AGS stood at 13 nM. On KRAS G12D [1], this compound had a DC50 of 5.5 nM. At KRAS G12D [6], this compound returned a Dmax of 95%.

In the case of `CCc1c(F)ccc2cc(O)cc(-c3ncc4c(N5CCC[C@@](C)(O)C5)nc(OCC5(CN6C[C@@H]7CN(c8cc([C@H](C(=O)N9C[C@H](O)C[C@H]9C(=O)N[C@@H](C)c9ccc(-c%10scnc%10C)cc9)C(C)C)on8)C[C@@H]7C6)CC5)nc4c3F)c12` [Compound 113], the IC50 with AGS stood at 8.3 nM; with SW620, 49 nM. At KRAS G12D [1], the DC50 was 9.3 nM. The Dmax at KRAS G12D [6] came to 95%.

With `CCc1c(F)ccc2cc(O)cc(-c3ncc4c(N5CCC[C@@](C)(O)C5)nc(OCC5(CN6CCC(c7ccc(-c8cn([C@H](C(=O)N9C[C@H](O)C[C@H]9C(=O)N[C@@H](C)c9ccc(-c%10scnc%10C)cc9)C(C)C)nn8)cn7)CC6)CC5)nc4c3F)c12` [Compound 203], the IC50 with AGS was 11 nM; in the data set on SW620 it was 47 nM. The same compound yielded a DC50 at KRAS G12D [1] of 14 nM. The compound further returned a Dmax at KRAS G12D [6] of 95%.

For `CCc1c(F)ccc2cc(O)cc(-c3ncc4c(N5CCC[C@@](C)(O)C5)nc(OCC5(CN6CCC(F)(COc7cc([C@H](C(=O)N8C[C@H](O)C[C@H]8C(=O)N[C@@H](C)c8ccc(-c9scnc9C)cc8)C(C)C)on7)CC6)CC5)nc4c3F)c12` [Compound 100], the figures for the IC50 in the data set with AGS and in the data set with SW620 were 11 nM and 38 nM, respectively. This compound registered a DC50 on KRAS G12D [1] of 9.5 nM. Besides, the microsomal CLint in “in vitro [2]” turned out to be 47 µL/min/mg; in “in vitro [3]”, 7.9 µL/min/mg; in the data set “in vitro [4]”, 3.2 µL/min/mg; in the data set “in vitro [5]” it was 57.5 µL/min/mg. For the same compound, the Dmax on KRAS G12D [6] is 95%.

As for `CCc1c(F)ccc2cc(O)cc(-c3ncc4c(N5CCC[C@@](C)(O)C5)nc(OCC5(CN6CCC(Nc7ccc(-c8cn([C@H](C(=O)N9C[C@H](O)C[C@H]9C(=O)N[C@@H](C)c9ccc(-c%10scnc%10C)cc9)C(C)C)nn8)cn7)CC6)CC5)nc4c3F)c12` [Compound 152], in the data set with AGS, the IC50 is 30 nM. On KRAS G12D [1], this compound gave a DC50 of 27 nM. This compound also gave a Dmax on KRAS G12D [6] of 95%.

For the compound `CCc1c(F)ccc2cc(O)cc(-c3ncc4c(N5CCC[C@@](C)(O)C5)nc(OCC5(CN6CCC(N7CCN(c8cc([C@H](C(=O)N9C[C@H](O)C[C@H]9C(=O)N[C@@H](C)c9ccc(-c%10scnc%10C)cc9)C(C)C)on8)CC7)CC6)CC5)nc4c3F)c12` [Compound 115], the half-maximal inhibitory concentration (IC50) with AGS is 29 nM. The compound also registered a DC50 at KRAS G12D [1] of 21 nM. For the same compound, the microsomal CLint was found to be 32.1 µL/min/mg in the data set “in vitro [2]”, 13.8 µL/min/mg in “in vitro [3]”, 15.9 µL/min/mg in the data set “in vitro [4]” and 18.3 µL/min/mg in the data set “in vitro [5]”. For the same compound, the Dmax on KRAS G12D [6] was 95%.

Turning to `C=C1CN2[C@H](COc3cc(-c4cn([C@H](C(=O)N5C[C@H](O)C[C@H]5C(=O)N[C@@H](C)c5ccc(-c6scnc6C)cc5)C(C)C)nn4)ccn3)CC[C@@]2(COc2nc(N3CCC[C@@](C)(O)C3)c3cnc(-c4cc(O)cc5ccc(F)c(CC)c45)c(F)c3n2)C1` [Compound 121], the IC50 with AGS was 40 nM. At KRAS G12D [1], the DC50 was 30 nM. The same compound had a Dmax at KRAS G12D [6] of 95%.
